Results published in US20240116946A1 (Gilead Sciences, Inc., priority 2022, published 2024).
Where two headings read alike, the source gives them in different places.

Columns and labels:
[1] = biological target: recombinant SARS-CoV-2 Main protease (Mpro) (Severe acute respiratory syndrome coronavirus 2 (2019-nCoV) (SARS-CoV-2), UniProt P0DTD1); assay: Cov Mpro Biochemical IC50 Assay
SARS-CoV-2-NLuc = assay: microbe, parasite or virus in culture; format: cell-based, SARS Coronavirus 2
[2] = recombinant SARS-CoV-2 Mpro 7.5 nM, fluorogenic peptide substrate 40 μM, read-out: MPro IC50
[3] = Severe acute respiratory syndrome coronavirus, 48 h; read-out: MPro EC50
[4] = Severe acute respiratory syndrome coronavirus, 48 h, read-out: MPro EC50
[5] = recombinant SARS-CoV-2 Mpro, fluorogenic peptide substrate, read-out: MPro IC50

COc1cc(-c2cc3c(s2)c(=O)n(-c2cncc4cnn(C)c24)c(=O)n3CCS(C)(=O)=O)c(Cl)cc1F [Example 1067, 6-(2-chloro-4-fluoro-5-methoxy-phenyl)-3-(1-methylpyrazolo[4,3-c]pyridin-7-yl)-1-(2-methylsulfonylethyl)thieno[3,2-d]pyrimidine-2,4-dione]
IC50 [1, 2]: 27.2 nM
EC50 (SARS-CoV-2-NLuc; [3]): 57.8 nM

Cn1nnc2cncc(-n3c(=O)c4sc(-c5ccc(F)cc5Cl)cc4n(CCC#N)c3=O)c21 (single isomer, unassigned) [Example 1029, 3-[6-(2-chloro-4-fluoro-phenyl)-3-(1-methyltriazolo[4,5-c]pyridin-7-yl)-2,4-dioxo-thieno[3,2-d]pyrimidin-1-yl]propanenitrile]
IC50 [1, 2]: 582 nM
EC50 (SARS-CoV-2-NLuc; read-out: MPro EC50): > 1000 nM

COc1cc(-c2cc3c(s2)c(=O)n(-c2cncc4ccccc24)c(=O)n3CC2(C#N)CC2)c(Cl)cc1F [Example 631, 1-[[6-(2-chloro-4-fluoro-5-methoxy-phenyl)-3-(4-isoquinolyl)-2,4-dioxo-thieno[3,2-d]pyrimidin-1-yl]methyl]cyclopropanecarbonitrile]
IC50 [1, 2]: 12.6 nM
EC50 (SARS-CoV-2-NLuc; [3]): 4.96 nM

Cc1c(Cl)cncc1-n1c(=O)c2sc(-c3ccc(F)cc3C#N)cc2n(CCC#N)c1=O [Example 808]
IC50 [1, 2]: 74.5 nM
EC50 (SARS-CoV-2-NLuc; [3]): 183 nM

Cn1cnc(Cn2c(=O)n(-c3cncc(C4CC4)c3)c(=O)c3sc(-c4ccccc4Cl)cc32)n1 [Example 621]
IC50 [1, 2]: 495 nM
EC50 (SARS-CoV-2-NLuc; [4]): 710 nM

COc1ccc(Cl)c(-c2cc3[nH]c(=O)n(-c4cncc5ccc(C)nc45)c(=O)c3s2)c1 [Example 459]
IC50 [1, 2]: 18.1 nM
EC50 (SARS-CoV-2-NLuc; [4]): 20.2 nM

COc1cc(-c2cc3c(s2)c(=O)n(-c2cncc4cccnc24)c(=O)n3CC#N)c(Cl)cc1F [Example 708]
IC50 [1, 2]: 4.41 nM
EC50 (SARS-CoV-2-NLuc; [4]): 8.71 nM

O=c1[nH]c2nc(-c3ccccc3Cl)ccc2c(=O)n1-c1cncc2ccccc12 [Example 32]
IC50 [1, 5]: 2280 nM
EC50 (SARS-CoV-2-NLuc; [3]): 7060 nM

COc1cc(-c2cc3[nH]c(=O)n(-c4cncc5sc(C(F)F)c(C)c45)c(=O)c3s2)c(Cl)cc1F [Example 1060, 6-(2-chloro-4-fluoro-5-methoxyphenyl)-3-(2-(difluoromethyl)-3-methylthieno[2,3-c]pyridin-4-yl)thieno[3,2-d]pyrimidine-2,4(1H,3H)-dione]
IC50 [1, 2]: 20 nM
EC50 (SARS-CoV-2-NLuc; [4]): 28.9 nM

N#Cc1ccccc1-c1cnc2c(=O)n(-c3cncc4ccccc34)c(=O)[nH]c2c1 [Example 69]
IC50 [1, 5]: 53.1 nM
EC50 (SARS-CoV-2-NLuc; [4]): 4210 nM

O=c1[nH]c2cc(-c3ccccc3)cnc2c(=O)n1-c1cncc2ccccc12 [Example 29]
IC50 [1, 5]: 476 nM
EC50 (SARS-CoV-2-NLuc; [3]): 4510 nM

CO[C@H]1CCN(c2ccc3cncc(-n4c(=O)[nH]c5cc(-c6ccccc6Cl)sc5c4=O)c3c2)C1 [Example 398]
IC50 [1, 2]: 3.38 nM
EC50 (SARS-CoV-2-NLuc; [4]): 18.7 nM

COc1cc(-c2cc3[nH]c(=O)n(-c4cncc5ccccc45)c(=O)c3cc2OC)c(Cl)cc1F (single isomer, unassigned) [Example 1054, 7-(2-chloro-4-fluoro-5-methoxyphenyl)-3-(isoquinolin-4-yl)-6-methoxyquinazoline-2,4(1H,3H)-dione]
IC50 [1, 2]: 34.6 nM
EC50 (SARS-CoV-2-NLuc; read-out: MPro EC50): 15.5 nM

COc1ccc(OC)c(-c2ccc3c(=O)n(-c4cncc5ccccc45)c(=O)[nH]c3c2)c1 [Example 210]
IC50 [1, 5]: 2830 nM
EC50 (SARS-CoV-2-NLuc; [4]): 2980 nM

O=c1[nH]c2cc(-c3ccccc3Cl)ccc2c(=O)n1-c1cnccc1N1CCOCC1 [Example 128]
IC50 [1, 5]: 510 nM
EC50 (SARS-CoV-2-NLuc; [3]): 1320 nM

Cc1c2c(-n3c(=O)c4sc(-c5ccc(F)cc5Cl)cc4n(CCC#N)c3=O)cncc2nn1C (single isomer, unassigned) [Example 971, 3-(6-(2-chloro-4-fluorophenyl)-3-(2,3-dimethyl-2H-pyrazolo[3,4-c]pyridin-4-yl)-2,4-dioxo-3,4-dihydrothieno[3,2-d]pyrimidin-1(2H)-yl)propanenitrile]
IC50 [1, 2]: 13 nM
EC50 (SARS-CoV-2-NLuc; read-out: MPro EC50): 55.8 nM

O=c1[nH]c2cc(-c3ccc(F)cc3Cl)sc2c(=O)n1-c1cncc2ccccc12 [Example 13]
IC50 [1, 5]: 17.1 nM
EC50 (SARS-CoV-2-NLuc; [4]): 42.4 nM

O=c1[nH]c2cc(-c3ccccc3Cl)sc2c(=O)n1-c1cncc2ccc(N3CCC(F)(F)C3)cc12 [Example 413]
IC50 [1, 2]: 5.46 nM
EC50 (SARS-CoV-2-NLuc; [4]): 66.8 nM

COc1cnc(Cl)c(-c2cc3c(s2)c(=O)n(-c2cncc(C(F)(F)F)c2)c(=O)n3CCC#N)c1 [Example 815]
IC50 [1, 2]: 52.4 nM
EC50 (SARS-CoV-2-NLuc; [3]): 180 nM

COc1cc(-c2cc3[nH]c(=O)n(-c4cncc5cccnc45)c(=O)c3s2)c(Cl)cc1F (single isomer, unassigned) [Example 1009, 6-(2-chloro-4-fluoro-5-methoxy-phenyl)-3-(1,6-naphthyridin-8-yl)-1H-thieno[3,2-d]pyrimidine-2,4-dione]
IC50 [1, 2]: 3.99 nM
EC50 (SARS-CoV-2-NLuc; read-out: MPro EC50): 3.96 nM

COc1cc(-c2nc3[nH]c(=O)n(-c4cncc5ccccc45)c(=O)c3s2)c(Cl)cc1F [Example 704]
IC50 ([1]; MPro IC50, recombinant SARS-CoV-2 Mpro 7.5 nM, fluorogenic peptide substrate 40 μM): 34.4 nM
EC50 (SARS-CoV-2-NLuc; [3]): 248 nM

COc1cnc(Cl)c(-c2cc3c(s2)c(=O)n(-c2cncc4ccccc24)c(=O)n3CCC#N)c1 (single isomer, unassigned) [Example 1089, 3-(6-(2-chloro-5-methoxypyridin-3-yl)-3-(isoquinolin-4-yl)-2,4-dioxo-3,4-dihydrothieno[3,2-d]pyrimidin-1(2H)-yl)propanenitrile]
IC50 [1, 2]: > 1000 nM
EC50 (SARS-CoV-2-NLuc; read-out: MPro EC50): > 1000 nM

COc1cc(-c2cc3c(s2)c(=O)n(-c2cncc4cnn(C)c24)c(=O)n3CCC#N)c(Cl)cc1F [Example 642, 3-[6-(2-chloro-4-fluoro-5-methoxy-phenyl)-3-(1-methylpyrazolo[4,3-c]pyridin-7-yl)-2,4-dioxo-thieno[3,2-d]pyrimidin-1-yl]propanenitrile]
IC50 [1, 2]: 8.54 nM
EC50 (SARS-CoV-2-NLuc; [3]): 4.59 nM

O=c1[nH]c2cc(-c3c(Cl)cccc3-c3cc4n(n3)CCC4)ccc2c(=O)n1-c1cncc2ccccc12 [Example 246]
IC50 [1, 5]: 21 nM
EC50 (SARS-CoV-2-NLuc; [4]): 18.4 nM

Cc1ncccc1-c1cccc(Cl)c1-c1ccc2c(=O)n(-c3cncc4ccccc34)c(=O)[nH]c2c1 [Example 320]
IC50 [1, 5]: 16 nM
EC50 (SARS-CoV-2-NLuc; [4]): 14.1 nM

N#Cc1ccc(F)c(-c2cc3[nH]c(=O)n(-c4cncc5ccccc45)c(=O)c3s2)c1 [Example 547]
IC50 [1, 2]: 170 nM
EC50 (SARS-CoV-2-NLuc; [4]): > 1000 nM

COc1ccc(Cl)c(-c2cc(F)c3c(=O)n(-c4cncc5ccccc45)c(=O)[nH]c3c2)c1 [Example 221]
IC50 [1, 5]: 65.8 nM
EC50 (SARS-CoV-2-NLuc; [3]): 50.6 nM

COc1cc(-c2cc3c(s2)c(=O)n(-c2cncc4ccccc24)c(=O)n3CCC#N)c(Cl)cc1F [Example 632, 3-(6-(2-chloro-4-fluoro-5-methoxyphenyl)-3-(isoquinolin-4-yl)-2,4-dioxo-3,4-dihydrothieno[3,2-d]pyrimidin-1(2H)-yl)propanenitrile]
IC50 [1, 2]: 6.13 nM
EC50 (SARS-CoV-2-NLuc; [3]): 3.11 nM

Cc1ccc2cncc(-n3c(=O)[nH]c4cc(-c5ccccc5Cl)sc4c3=O)c2c1 [Example 106, 6-(2-chlorophenyl)-3-(6-methylisoquinolin-4-yl)thieno[3,2-d]pyrimidine-2,4(1H,3H)-dione]
IC50 [1, 5]: 23.7 nM
EC50 (SARS-CoV-2-NLuc; [3]): 73 nM

COc1ccc(C#N)c(-c2cc3[nH]c(=O)n(-c4cncc5ccc(N6CCOCC6)cc45)c(=O)c3s2)c1 [Example 433]
IC50 [1, 2]: 7.8 nM
EC50 (SARS-CoV-2-NLuc; [4]): 69.5 nM

COc1cc(-c2cc3[nH]c(=O)n(-c4cncc5cccc(C)c45)c(=O)c3s2)c(Cl)cc1F (single isomer, unassigned) [Example 995, 6-(2-chloro-4-fluoro-5-methoxyphenyl)-3-(5-methylisoquinolin-4-yl)thieno[3,2-d]pyrimidine-2,4(1H,3H)-dione]
IC50 [1, 2]: 3.27 nM
EC50 (SARS-CoV-2-NLuc; read-out: MPro EC50): 1.26 nM

COc1cc(-c2cc3c(s2)c(=O)n(-c2cncc(Cl)c2C)c(=O)n3CCC#N)c(C#N)cc1F [Example 806]
IC50 [1, 2]: 5.15 nM
EC50 (SARS-CoV-2-NLuc; [3]): 6.99 nM

N#CCCn1c(=O)n(-c2cncc3nnn(C4CC4)c23)c(=O)c2sc(-c3ccc(F)cc3Cl)cc21 [Example 883]
IC50 [1, 2]: 30.3 nM
EC50 (SARS-CoV-2-NLuc; [4]): 233 nM

O=c1[nH]c2cc(-c3ccccc3Cl)sc2c(=O)n1-c1cncc2ccccc12 (single isomer, unassigned) [Example 150, 6-(2-chlorophenyl)-3-(isoquinolin-4-yl)thieno[3,2-d]pyrimidine-2,4(1H,3H)-dione]
IC50 [1, 5]: 73 nM
EC50 (SARS-CoV-2-NLuc; read-out: MPro EC50): 124 nM

COc1ccc(Cn2c(=O)n(-c3cncc4ccccc34)c(=O)c3sc(-c4cccc5c4CCC5)cc32)cc1 [Example 167, 6-(2,3-dihydro-1H-inden-4-yl)-3-(isoquinolin-4-yl)-1-(4-methoxybenzyl)thieno[3,2-d]pyrimidine-2,4(1H,3H)-dione]
IC50 [1, 5]: 49700 nM
EC50 (SARS-CoV-2-NLuc; [4]): 4510 nM

COc1cc(-c2cc3[nH]c(=O)n(-c4cncc5c4c(C)nn5CC(F)(F)F)c(=O)c3s2)c(Cl)cc1F [Example 741]
IC50 [1, 2]: > 1000 nM
EC50 (SARS-CoV-2-NLuc; [4]): > 1000 nM

O=c1[nH]c2cc(-c3c(Cl)cccc3-c3ccc4ncnn4c3)ccc2c(=O)n1-c1cncc2ccccc12 [Example 241]
IC50 [1, 5]: 35 nM
EC50 (SARS-CoV-2-NLuc; [4]): 54 nM

O=c1c2sc(-c3ccccc3Cl)cc2n(CC2CCCC2)c(=O)n1-c1cncc2ccccc12 [Example 4]
IC50 [1, 5]: 792 nM
EC50 (SARS-CoV-2-NLuc; [4]): 892 nM

O=c1[nH]c2sc(-c3ccccc3Cl)nc2c(=O)n1-c1cncc2ccccc12 [Example 78]
IC50 [1, 5]: 404 nM
EC50 (SARS-CoV-2-NLuc; [4]): 9530 nM

COc1cc(-c2cc3c(s2)c(=O)n(-c2cncc4cccnc24)c(=O)n3CCC#N)c(Cl)cc1F (single isomer, unassigned) [Example 1037, 3-(6-(2-chloro-4-fluoro-5-methoxyphenyl)-3-(1,6-naphthyridin-8-yl)-2,4-dioxo-3,4-dihydrothieno[3,2-d]pyrimidin-1(2H)-yl)propanenitrile]
IC50 [1, 2]: 544 nM
EC50 (SARS-CoV-2-NLuc; read-out: MPro EC50): 362 nM
